Assay results: paper PMC6332430, “Design, Synthesis and Biological Evaluation of Novel Substituted N,N′-Diaryl ureas as Potent p38 Inhibitors” (Molecules, 2015)
Like-named read-outs stand apart in the source and are kept apart here.

Assays:
Test in all cases: TR-FRET kinase assay, GFP-ATF2 ([…]-96) phosphorylation
Type in all cases: biochemical
[1] = molecular target: T1, MAPK14/p38α (Homo sapiens, UniProt Q16539)
[2] = molecular target: T2, p38γ (Homo sapiens, UniProt P53778)
T2 construct: gene MAPK12
T2 sequence (P53778 1-367): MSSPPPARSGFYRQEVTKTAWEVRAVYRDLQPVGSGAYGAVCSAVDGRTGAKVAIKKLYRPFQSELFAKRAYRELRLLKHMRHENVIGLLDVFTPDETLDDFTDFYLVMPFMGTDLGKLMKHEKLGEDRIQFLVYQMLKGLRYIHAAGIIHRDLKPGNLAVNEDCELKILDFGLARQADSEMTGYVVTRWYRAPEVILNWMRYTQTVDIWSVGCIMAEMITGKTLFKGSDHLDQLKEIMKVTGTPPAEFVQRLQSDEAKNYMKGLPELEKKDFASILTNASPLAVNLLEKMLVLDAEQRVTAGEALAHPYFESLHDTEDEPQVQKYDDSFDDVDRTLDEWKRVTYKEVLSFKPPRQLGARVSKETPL

[3] = molecular target: T3, p38β (Homo sapiens, UniProt Q15759)
T3 construct: gene MAPK11
T3 sequence (Q15759 whole entry): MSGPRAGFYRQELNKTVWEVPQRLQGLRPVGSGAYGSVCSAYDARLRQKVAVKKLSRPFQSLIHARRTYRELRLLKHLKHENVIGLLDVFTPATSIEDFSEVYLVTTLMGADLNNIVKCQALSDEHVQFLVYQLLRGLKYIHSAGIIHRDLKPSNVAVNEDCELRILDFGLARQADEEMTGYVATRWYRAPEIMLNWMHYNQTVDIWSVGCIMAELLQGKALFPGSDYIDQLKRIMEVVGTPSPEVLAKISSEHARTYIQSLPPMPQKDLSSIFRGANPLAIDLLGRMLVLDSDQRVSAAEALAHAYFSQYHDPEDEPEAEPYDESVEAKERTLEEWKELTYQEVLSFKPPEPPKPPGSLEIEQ

[4] = molecular target: T4, p38δ (Homo sapiens, UniProt O15264)
T4 construct: gene MAPK13
T4 sequence (O15264 1-365): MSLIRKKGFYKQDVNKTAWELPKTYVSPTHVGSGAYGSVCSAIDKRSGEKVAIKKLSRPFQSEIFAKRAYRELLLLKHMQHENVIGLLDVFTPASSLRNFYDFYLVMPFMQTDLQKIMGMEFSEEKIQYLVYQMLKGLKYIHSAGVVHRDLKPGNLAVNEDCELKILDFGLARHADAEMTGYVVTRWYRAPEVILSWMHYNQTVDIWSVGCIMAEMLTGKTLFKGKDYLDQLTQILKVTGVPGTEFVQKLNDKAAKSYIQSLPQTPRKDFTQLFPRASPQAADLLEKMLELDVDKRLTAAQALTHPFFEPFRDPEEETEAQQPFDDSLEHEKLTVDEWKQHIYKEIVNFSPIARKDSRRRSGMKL

[5] = molecular target: T1, MAPK14/p38α; details: 90 μM ATP, 0.4 μM GFP-ATF2, 10 mM MgCl2, pH 7.5, RT, 15 min preincubation; unreliable (the two tables disagree)

T1 sequence (Q16539 2-360): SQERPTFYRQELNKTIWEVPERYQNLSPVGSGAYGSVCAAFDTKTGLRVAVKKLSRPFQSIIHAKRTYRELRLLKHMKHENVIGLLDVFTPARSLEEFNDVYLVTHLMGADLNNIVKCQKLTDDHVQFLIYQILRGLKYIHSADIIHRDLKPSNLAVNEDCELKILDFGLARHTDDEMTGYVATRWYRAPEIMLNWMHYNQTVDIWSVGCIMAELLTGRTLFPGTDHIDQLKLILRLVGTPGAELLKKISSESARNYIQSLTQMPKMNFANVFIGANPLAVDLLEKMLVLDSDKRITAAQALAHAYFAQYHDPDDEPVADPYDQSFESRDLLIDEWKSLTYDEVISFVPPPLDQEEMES

SMILES | IC50 [1] | also measured
CC(C)(C)c1cc(NC(=O)NCc2ccccc2Oc2ccc3nc(N)sc3c2)n(-c2ccc([N+](=O)[O-])cc2)n1 [8a, 1-(2-((2-Aminobenzo[d]thiazol-6-yl)oxy)benzyl)-3-(3-(tert-butyl)-1-(4-nitrophenyl)-1H-pyrazol-5-yl)urea] | 2.878 ± 0.01 nM | –
Cc1ccc(-n2nc(C(C)(C)C)cc2NC(=O)NCc2cc(F)ccc2Oc2ccc3nc(NC(=O)NC(C)(C)C)sc3c2)cc1 [9i, 1-(3-(Tert-butyl)-1-(p-tolyl)-1H-pyrazol-5-yl)-3-(2-((2-(3-(tert-butyl)ureido)benzo[d]thiazol-6-yl)oxy)-5-fluorobenzyl)urea] | 7.54 ± 1.99 nM | –
Cc1ccc(-n2nc(C(C)(C)C)cc2NC(=O)NCc2cc(F)ccc2Oc2ccc3nc(NC(=O)NC4CCCCC4)sc3c2)cc1 [9h, 1-(3-(Tert-butyl)-1-(p-tolyl)-1H-pyrazol-5-yl)-3-(2-((2-(3-cyclohexylureido)benzo[d]thiazol-6-yl)oxy)-5-fluorobenzyl)urea] | 12.4 ± 0.18 nM | –
Cc1ccc(-n2nc(C(C)(C)C)cc2NC(=O)NCc2ccccc2Oc2ccc3nc(NC(=O)NC4CCCCC4)sc3c2)cc1 [9f, 1-(3-(Tert-butyl)-1-(p-tolyl)-1H-pyrazol-5-yl)-3-(2-((2-(3-cyclohexylureido)benzo[d]thiazol-6-yl)oxy)benzyl)urea] | 4.499 ± 0.04 nM | –
Cc1ccc(-n2nc(C(C)(C)C)cc2NC(=O)NCc2ccccc2Oc2ccc3nc(NC(=O)NCCCl)sc3c2)cc1 [9e, 1-(3-(Tert-butyl)-1-(p-tolyl)-1H-pyrazol-5-yl)-3-(2-((2-(3-(2-chloroethyl)ureido)benzo[d]thiazol-6-yl)oxy)benzyl)urea] | – | IC50 ([1]; read-out: p38α IC50 (nM) ^a): 3.29 ± 0.25 nM
Cc1ccc(-n2nc(C(C)(C)C)cc2NC(=O)NCc2cc(F)ccc2Oc2ccc3nc(N)sc3c2)cc1 [8b, 1-(2-((2-Aminobenzo[d]thiazol-6-yl)oxy)-5-fluorobenzyl)-3-(3-(tert-butyl)-1-(p-tolyl)-1H-pyrazol-5-yl)urea] | 1.11 ± 0.2 nM | –
CCNC(=O)Nc1nc2ccc(Oc3ccc(F)cc3CNC(=O)Nc3cc(C(C)(C)C)nn3-c3ccc(C)cc3)cc2s1 [9g, 1-(3-(Tert-butyl)-1-(p-tolyl)-1H-pyrazol-5-yl)-3-(2-((2-(3-ethylureido)benzo[d]thiazol-6-yl)oxy)-5-fluorobenzyl)urea] | – | IC50 [2]: 424 ± 5.75 nM; IC50 [3]: 20.1 ± 1.4 nM; IC50 [4]: 948.4 ± 8.35 nM; p38α IC50 (nM) ^a [5]: 0.844 ± 1.04 nM

Now from value to molecule, other results behind:

IC50 [1] | SMILES | also measured
1.31 ± 0.09 nM | COC(=O)Nc1nc2ccc(Oc3ccccc3CNC(=O)Nc3cc(C(C)(C)C)nn3-c3ccc([N+](=O)[O-])cc3)cc2s1 [9a, Methyl(6-(2-((3-(3-(tert-butyl)-1-(4-nitrophenyl)-1H-pyrazol-5-yl)ureido)methyl)phenoxy)benzo[d]thiazol-2-yl)carbamate] | –
1.02 ± 0.09 nM | COC(=O)Nc1nc2ccc(Oc3ccccc3CNC(=O)Nc3cc(C(C)(C)C)nn3-c3ccc(C)cc3)cc2s1 [9c, Methyl(6-(2-((3-(3-(tert-butyl)-1-(p-tolyl)-1H-pyrazol-5-yl)ureido)methyl)phenoxy)benzo[d]thiazol-2-yl)carbamate] | –
6.16 ± 0.07 nM | Cc1ccc(-n2nc(C(C)(C)C)cc2NC(=O)NCc2ccccc2Oc2ccc3nc(NC(=O)NC(C)(C)C)sc3c2)cc1 [9b, 1-(3-(Tert-butyl)-1-(p-tolyl)-1H-pyrazol-5-yl)-3-(2-((2-(3-(tert-butyl)ureido)benzo[d]thiazol-6-yl)oxy)benzyl)urea] | –
4.28 ± 1.14 nM | COC(=O)Nc1nc2ccc(Oc3ccc(F)cc3CNC(=O)Nc3cc(C(C)(C)C)nn3-c3ccc(C)cc3)cc2s1 [9j, Methyl(6-(2-((3-(3-(tert-butyl)-1-(p-tolyl)-1H-pyrazol-5-yl)ureido)methyl)-4-fluorophenoxy)benzo[d]thiazol-2-yl)carbamate] | –
1.5 ± 0.24 nM | CCNC(=O)Nc1nc2ccc(Oc3ccccc3CNC(=O)Nc3cc(C(C)(C)C)nn3-c3ccc(C)cc3)cc2s1 [9d, 1-(3-(Tert-butyl)-1-(p-tolyl)-1H-pyrazol-5-yl)-3-(2-((2-(3-ethylureido)benzo[d]thiazol-6-yl)oxy)benzyl)urea] | IC50 [2]: 191 ± 7.2 nM; IC50 [3]: 17.5 ± 1.25 nM; IC50 [4]: 231 ± 7.15 nM
